# ChEMBL document CHEMBL4020788, “Synthesis, SAR and molecular docking studies of benzo[d]thiazole-hydrazones as potential antibacterial and antifungal agents” (2017)
# Activity calls are given as the source filed them. The rule behind the calls is not given here.
# Assays:
# Assay type in all cases: functional
# Fusarium verticillioides [1] = experiment: Antifungal activity against Fusarium moniliforme at 25 ug/ml after 48 hrs by agar well diffusion method
# Aspergillus niger [2] = experiment: Antifungal activity against Aspergillus niger at 50 ug/ml after 48 hrs by agar well diffusion method
# Klebsiella pneumoniae [3] = experiment: Antibacterial activity against Klebsiella pneumoniae at 25 ug/ml after 24 hrs by agar well diffusion method; details: for zone of inhibition at 25 µg/mL: read-out: DIZ
# Staphylococcus aureus [4] = experiment: Antibacterial activity against methicillin resistant Staphylococcus aureus MRSA090 at 50 ug/ml after 24 hrs by agar well diffusion method; details: for zone of inhibition at 50 µg/mL: MRSA090, 24 h, read-out: DIZ
# Bacillus subtilis [5] = experiment: Antibacterial activity against Bacillus subtilis at 75 ug/ml after 24 hrs by agar well diffusion method; details: for zone of inhibition at 75 µg/mL: read-out: DIZ
# Klebsiella pneumoniae [6] = experiment: Antibacterial activity against Klebsiella pneumoniae at 50 ug/ml after 24 hrs by agar well diffusion method; details: for zone of inhibition at 50 µg/mL: read-out: DIZ
# Staphylococcus aureus [7] = experiment: Antibacterial activity against Staphylococcus aureus at 25 ug/ml after 24 hrs by agar well diffusion method
# Bacillus subtilis [8] = experiment: Antibacterial activity against Bacillus subtilis at 100 ug/ml after 24 hrs by agar well diffusion method; details: for zone of inhibition at 100 µg/mL: read-out: DIZ
# Staphylococcus aureus [9] = experiment: Antibacterial activity against methicillin resistant Staphylococcus aureus MRSA090 at 25 ug/ml after 24 hrs by agar well diffusion method; details: for zone of inhibition at 25 µg/mL: MRSA090, 24 h, read-out: DIZ
# Fusarium oxysporum [10] = experiment: Antifungal activity against Fusarium oxysporum at 50 ug/ml after 48 hrs by agar well diffusion method
# Fusarium oxysporum [11] = experiment: Antifungal activity against Fusarium oxysporum at 75 ug/ml after 48 hrs by agar well diffusion method; details: for zone of inhibition at 75 µg/mL: read-out: DIZ
# Staphylococcus aureus [12] = experiment: Antibacterial activity against Staphylococcus aureus at 50 ug/ml after 24 hrs by agar well diffusion method
# Staphylococcus aureus [13] = experiment: Antibacterial activity against Staphylococcus aureus at 100 ug/ml after 24 hrs by agar well diffusion method; details: for zone of inhibition at 100 µg/mL: read-out: DIZ
# Klebsiella pneumoniae [14] = experiment: Antibacterial activity against Klebsiella pneumoniae at 100 ug/ml after 24 hrs by agar well diffusion method; details: for zone of inhibition at 100 µg/mL: read-out: DIZ
# Fusarium verticillioides [15] = experiment: Antifungal activity against Fusarium moniliforme at 75 ug/ml after 48 hrs by agar well diffusion method
# Aspergillus niger [16] = experiment: Antifungal activity against Aspergillus niger at 25 ug/ml after 48 hrs by agar well diffusion method
# Fusarium verticillioides [17] = experiment: Antifungal activity against Fusarium moniliforme at 50 ug/ml after 48 hrs by agar well diffusion method
# Staphylococcus aureus [18] = experiment: Antibacterial activity against methicillin resistant Staphylococcus aureus MRSA090 at 100 ug/ml after 24 hrs by agar well diffusion method; details: for zone of inhibition at 100 µg/mL: MRSA090, 24 h, read-out: DIZ
# Fusarium verticillioides [19] = experiment: Antifungal activity against Fusarium moniliforme at 100 ug/ml after 48 hrs by agar well diffusion method
# Bacillus subtilis [20] = experiment: Antibacterial activity against Bacillus subtilis at 25 ug/ml after 24 hrs by agar well diffusion method; details: for zone of inhibition at 25 µg/mL: read-out: DIZ
# Staphylococcus aureus [21] = experiment: Antibacterial activity against methicillin resistant Staphylococcus aureus MRSA090 at 75 ug/ml after 24 hrs by agar well diffusion method; details: for zone of inhibition at 75 µg/mL: MRSA090, 24 h, read-out: DIZ
# Aspergillus niger [22] = experiment: Antifungal activity against Aspergillus niger at 75 ug/ml after 48 hrs by agar well diffusion method
# Escherichia coli [23] = experiment: Antibacterial activity against Escherichia coli at 50 ug/ml after 24 hrs by agar well diffusion method; details: for zone of inhibition at 50 µg/mL: read-out: DIZ
# Escherichia coli [24] = experiment: Antibacterial activity against Escherichia coli at 25 ug/ml after 24 hrs by agar well diffusion method; details: for zone of inhibition at 25 µg/mL: read-out: DIZ
# Klebsiella pneumoniae [25] = experiment: Antibacterial activity against Klebsiella pneumoniae at 75 ug/ml after 24 hrs by agar well diffusion method; details: for zone of inhibition at 75 µg/mL: read-out: DIZ
# Escherichia coli [26] = experiment: Antibacterial activity against Escherichia coli at 100 ug/ml after 24 hrs by agar well diffusion method; details: for zone of inhibition at 100 µg/mL: read-out: DIZ
# Aspergillus niger [27] = experiment: Antifungal activity against Aspergillus niger at 100 ug/ml after 48 hrs by agar well diffusion method
# Staphylococcus aureus [28] = experiment: Antibacterial activity against Staphylococcus aureus at 75 ug/ml after 24 hrs by agar well diffusion method; details: for zone of inhibition at 75 µg/mL: read-out: DIZ
# Fusarium oxysporum [29] = experiment: Antifungal activity against Fusarium oxysporum at 100 ug/ml after 48 hrs by agar well diffusion method; details: for zone of inhibition at 100 µg/mL: read-out: DIZ
# Fusarium oxysporum [30] = experiment: Antifungal activity against Fusarium oxysporum at 25 ug/ml after 48 hrs by agar well diffusion method
# Bacillus subtilis [31] = experiment: Antibacterial activity against Bacillus subtilis at 50 ug/ml after 24 hrs by agar well diffusion method; details: for zone of inhibition at 50 µg/mL: read-out: DIZ
# Escherichia coli [32] = experiment: Antibacterial activity against Escherichia coli at 75 ug/ml after 24 hrs by agar well diffusion method; details: for zone of inhibition at 75 µg/mL: read-out: DIZ
smiles,measurement,setting,value
COc1cc(/C=N/Nc2nc3cccc(C)c3s2)ccc1O,diameter of the inhibition zone (DIZ),Fusarium verticillioides [1],inactive
same,diameter of the inhibition zone (DIZ),Aspergillus niger [2],inactive
same,zone of inhibition at 25 µg/mL,Klebsiella pneumoniae [3],4 mm
same,zone of inhibition at 50 µg/mL,Staphylococcus aureus [4],16 mm
same,zone of inhibition at 75 µg/mL,Bacillus subtilis [5],23 mm
same,zone of inhibition at 50 µg/mL,Klebsiella pneumoniae [6],10 mm
same,zone of inhibition at 25 µg/mL,Staphylococcus aureus [7]; read-out: DIZ,13 mm
same,zone of inhibition at 100 µg/mL,Bacillus subtilis [8],28 mm
same,zone of inhibition at 25 µg/mL,Staphylococcus aureus [9],12 mm
same,diameter of the inhibition zone (DIZ),Fusarium oxysporum [10],inactive
same,zone of inhibition at 75 µg/mL,Fusarium oxysporum [11],8 mm
same,zone of inhibition at 50 µg/mL,Staphylococcus aureus [12]; read-out: DIZ,17 mm
same,zone of inhibition at 100 µg/mL,Staphylococcus aureus [13],26 mm
same,zone of inhibition at 100 µg/mL,Klebsiella pneumoniae [14],16 mm
same,diameter of the inhibition zone (DIZ),Fusarium verticillioides [15],inactive
same,diameter of the inhibition zone (DIZ),Aspergillus niger [16],inactive
same,diameter of the inhibition zone (DIZ),Fusarium verticillioides [17],inactive
same,zone of inhibition at 100 µg/mL,Staphylococcus aureus [18],24 mm
same,diameter of the inhibition zone (DIZ),Fusarium verticillioides [19],inactive
same,zone of inhibition at 25 µg/mL,Bacillus subtilis [20],15 mm
same,zone of inhibition at 75 µg/mL,Staphylococcus aureus [21],19 mm
same,diameter of the inhibition zone (DIZ),Aspergillus niger [22],inactive
same,zone of inhibition at 50 µg/mL,Escherichia coli [23],15 mm
same,zone of inhibition at 25 µg/mL,Escherichia coli [24],10 mm
same,zone of inhibition at 75 µg/mL,Klebsiella pneumoniae [25],14 mm
same,zone of inhibition at 100 µg/mL,Escherichia coli [26],27 mm
same,diameter of the inhibition zone (DIZ),Aspergillus niger [27],inactive
same,zone of inhibition at 75 µg/mL,Staphylococcus aureus [28],22 mm
same,zone of inhibition at 100 µg/mL,Fusarium oxysporum [29],12 mm
same,diameter of the inhibition zone (DIZ),Fusarium oxysporum [30],inactive
same,zone of inhibition at 50 µg/mL,Bacillus subtilis [31],19 mm
same,zone of inhibition at 75 µg/mL,Escherichia coli [32],21 mm
Cc1cccc2nc(N/N=C/CC(C)C)sc12,diameter of the inhibition zone (DIZ),Fusarium verticillioides [1],inactive
same,diameter of the inhibition zone (DIZ),Aspergillus niger [2],inactive
same,diameter of the inhibition zone (DIZ),Klebsiella pneumoniae [3],inactive
same,diameter of the inhibition zone (DIZ),Staphylococcus aureus [4],inactive
same,diameter of the inhibition zone (DIZ),Bacillus subtilis [5],inactive
same,diameter of the inhibition zone (DIZ),Klebsiella pneumoniae [6],inactive
same,diameter of the inhibition zone (DIZ),Staphylococcus aureus [7],inactive
same,diameter of the inhibition zone (DIZ),Bacillus subtilis [8],inactive
same,diameter of the inhibition zone (DIZ),Staphylococcus aureus [9],inactive
same,diameter of the inhibition zone (DIZ),Fusarium oxysporum [10],inactive
same,diameter of the inhibition zone (DIZ),Fusarium oxysporum [11],inactive
same,diameter of the inhibition zone (DIZ),Staphylococcus aureus [12],inactive
same,diameter of the inhibition zone (DIZ),Staphylococcus aureus [13],inactive
same,diameter of the inhibition zone (DIZ),Klebsiella pneumoniae [14],inactive
same,diameter of the inhibition zone (DIZ),Fusarium verticillioides [15],inactive
same,diameter of the inhibition zone (DIZ),Aspergillus niger [16],inactive
same,diameter of the inhibition zone (DIZ),Fusarium verticillioides [17],inactive
same,diameter of the inhibition zone (DIZ),Staphylococcus aureus [18],inactive
same,diameter of the inhibition zone (DIZ),Fusarium verticillioides [19],inactive
same,diameter of the inhibition zone (DIZ),Bacillus subtilis [20],inactive
same,diameter of the inhibition zone (DIZ),Staphylococcus aureus [21],inactive
same,diameter of the inhibition zone (DIZ),Aspergillus niger [22],inactive
same,diameter of the inhibition zone (DIZ),Escherichia coli [23],inactive
same,diameter of the inhibition zone (DIZ),Escherichia coli [24],inactive
same,diameter of the inhibition zone (DIZ),Klebsiella pneumoniae [25],inactive
same,diameter of the inhibition zone (DIZ),Escherichia coli [26],inactive
same,diameter of the inhibition zone (DIZ),Aspergillus niger [27],inactive
same,diameter of the inhibition zone (DIZ),Staphylococcus aureus [28],inactive
same,diameter of the inhibition zone (DIZ),Fusarium oxysporum [29],inactive
same,diameter of the inhibition zone (DIZ),Fusarium oxysporum [30],inactive
same,diameter of the inhibition zone (DIZ),Bacillus subtilis [31],inactive
same,diameter of the inhibition zone (DIZ),Escherichia coli [32],inactive
Cc1cccc2nc(N/N=C/c3ccc(Br)cc3)sc12,zone of inhibition at 25 µg/mL,Fusarium verticillioides [1]; read-out: DIZ,12 mm
same,zone of inhibition at 50 µg/mL,Aspergillus niger [2]; read-out: DIZ,18 mm
same,zone of inhibition at 25 µg/mL,Klebsiella pneumoniae [3],6 mm
same,zone of inhibition at 50 µg/mL,Staphylococcus aureus [4],11 mm
same,zone of inhibition at 75 µg/mL,Bacillus subtilis [5],11 mm
same,zone of inhibition at 50 µg/mL,Klebsiella pneumoniae [6],11 mm
same,diameter of the inhibition zone (DIZ),Staphylococcus aureus [7],inactive
same,zone of inhibition at 100 µg/mL,Bacillus subtilis [8],13 mm
same,zone of inhibition at 25 µg/mL,Staphylococcus aureus [9],9 mm
same,zone of inhibition at 50 µg/mL,Fusarium oxysporum [10]; read-out: DIZ,18 mm
same,zone of inhibition at 75 µg/mL,Fusarium oxysporum [11],23 mm
same,diameter of the inhibition zone (DIZ),Staphylococcus aureus [12],inactive
same,zone of inhibition at 100 µg/mL,Staphylococcus aureus [13],9 mm
same,zone of inhibition at 100 µg/mL,Klebsiella pneumoniae [14],17 mm
same,zone of inhibition at 75 µg/mL,Fusarium verticillioides [15]; read-out: DIZ,24 mm
same,zone of inhibition at 25 µg/mL,Aspergillus niger [16]; read-out: DIZ,14 mm
same,zone of inhibition at 50 µg/mL,Fusarium verticillioides [17]; read-out: DIZ,17 mm
same,zone of inhibition at 100 µg/mL,Staphylococcus aureus [18],19 mm
same,zone of inhibition at 100 µg/mL,Fusarium verticillioides [19]; read-out: DIZ,28 mm
same,zone of inhibition at 25 µg/mL,Bacillus subtilis [20],4 mm
same,zone of inhibition at 75 µg/mL,Staphylococcus aureus [21],15 mm
same,zone of inhibition at 75 µg/mL,Aspergillus niger [22]; read-out: DIZ,23 mm
same,zone of inhibition at 50 µg/mL,Escherichia coli [23],7 mm
same,zone of inhibition at 25 µg/mL,Escherichia coli [24],3 mm
same,zone of inhibition at 75 µg/mL,Klebsiella pneumoniae [25],14 mm
same,zone of inhibition at 100 µg/mL,Escherichia coli [26],14 mm
same,zone of inhibition at 100 µg/mL,Aspergillus niger [27]; read-out: DIZ,28 mm
same,zone of inhibition at 75 µg/mL,Staphylococcus aureus [28],5 mm
same,zone of inhibition at 100 µg/mL,Fusarium oxysporum [29],29 mm
same,zone of inhibition at 25 µg/mL,Fusarium oxysporum [30]; read-out: DIZ,13 mm
same,zone of inhibition at 50 µg/mL,Bacillus subtilis [31],7 mm
same,zone of inhibition at 75 µg/mL,Escherichia coli [32],11 mm
